Data published in patent US8722674B2, “1,3,5-triazine-2,4,6-triamine compound or pharmaceutical acceptable salt thereof, and pharmaceutical composition comprising the same” (Hanall Biopharma Co., Ltd., priority 2007, dated 2014).

Legend:
[1] = system: HepG2 cells; assay: Measurement of cholesterol synthesis ability (Amplex red fluorescence); assay type: cell-based; conditions: Homo sapiens; 100 uM, HepG2 cells, 24 h treatment; lower is better; read-out: cholesterol synthesis ability, % control
Text: (§1) Metformin that is widely used in type 2 diabetic patients inhibits the formation of glucose, the synthesis of cholesterol and triglyceride in liver cells and promote the absorption of glucose from blood vessels in the muscle cells. […] In the case of the ability to form cholesterol, triglyceride and glucose, the lower the numerical value, the better the effect. Numerical values for a control group become reference values.
(§2) As a hepatic cell model, HepG2 cells were used to measure cholesterol synthesis inhibitory ability, which is the important function of AMPK. The hepatic cell model HepG2 cells were cultured in 1% serum-containing media for 24 hours, and then treated with each of the compounds for 24 hours. Then, the cells were disrupted with lysis buffer (0.1 M potassium phosphate, pH 7.4, 0.05 M NaCl, 5 mM cholic acid, 0.1% Triton X-100). To the disrupted cells, the same volume of a reaction solution (2 U/ml cholesterol oxidizing agent, 2 U/ml peroxidase, 0.2 U/ml cholesterol esterase, and 300 μM Amplex red as a fluorescent factor) was added and allowed to react at 37° C. for 30 minutes. After completion of the reaction, the cells were measured with a fluorometer at a wavelength of 560/590 nm (ex/em), thus quantifying the amount of […] formed in the cells. A lower measurement value means an increased lipid production inhibitory ability.

[2] = system: C2C12 cells; assay: Measurement of glucose absorption (3H-deoxy-glucose); assay type: cell-based; conditions: for activity at 100 µM: Mus musculus, differentiated C2C12 muscle cells, with 1 μM insulin 24 h, higher is better, read-out: glucose absorption, % control; for effect of reducing insulin resistance, times better than the control group: absorption effect divided by average percent of control group (metformin 2 mM), multiplied by 20
Text: as §1
As a muscle cell model, C2C12 cells were induced to differentiate into muscle cells in 2% bovine fetal serum for 6 days. The C2C12 cells which differentiated into muscle cells were treated with each of the compounds in serum-free low glucose media, and then cultured with 1 μM of insulin for 24 hours. After cultivation, the cells were treated with 1 μCi 3H-deoxy-glucose and 10 μM deoxy-glucose at 37° C. for 15 minutes. After treatment, the media were removed, and the cells were washed twice with PBS. The washed cells were treated with 0.1 N NaOH and neutralized with 1N HCl. The amount of glucose absorbed into the cells was measured with a liquid scintillation counter. The effect of the compounds was determined by selecting a compound showing an absorption effect of at least 200%, dividing the absorption effect by the average percent of the control group, and then multiplying the divided value by […]. A higher measurement value means a stronger ability to reduce insulin resistance.

[3] = system: HepG2 cells; assay: Measurement of gluconeogenesis (14C-lactate); assay type: cell-based; conditions: Homo sapiens, 100 uM, 24 h treatment, lower is better, read-out: gluconeogenesis (glucose synthesis ability), % control
Experimental: as §1
As a hepatic cell model, HepG2 cells were cultured in 10% serum-containing high glucose media, and then treated with each of the compounds for 24 hours. Then, the cells were treated with 0.5 uCi 14C-lactate and 10 mM L-lactate, and cultured for 4 hours. After cultivation, the media of the cells were removed, and the cells were washed with PBS, treated with 0.1N NaOH and left to stand at room temperature for 1 hour. Then, the cells were neutralized with 1N HCl, and the amount of glucose formed in the cells was measured with a liquid scintillation counter. […] A lower measurement value means a stronger blood glucose lowering activity.

[4] = system: HepG2 cells; assay: Measurement of triglyceride (Amplex red fluorescence); assay type: cell-based; conditions: Homo sapiens, 100 uM, 24 h treatment, lower is better, read-out: triglyceride synthesis ability, % control
Experimental: as §1
as §2, with “model,” for “model, HepG2 cells were used to measure cholesterol synthesis inhibitory ability, which is the important function of AMPK. The hepatic cell model”, “(0.1M” for “(0.1 M”, “(0.76” for “(2”, “glycerol kinase, […] peroxidase, 22.2 U/ml glycerol” for “cholesterol”, “agent,” for “agent, 2 U/ml peroxidase, 0.2 U/ml cholesterol esterase,”

For `CN(C)c1nc(N)nc(N2CCN(c3ccccc3)CC2)n1` [Example 39, N2,N2-dimethyl-6-(4-phenylpiperazin-1-yl)-1,3,5-triazine-2,4-diamine], which activity at 100 µM [1] is on record?
The activity at 100 µM was 55.8%.

And the activity at 100 µM [2]?
The activity at 100 µM was 115%.

What about the activity at 100 µM [3] of the same compound?
Its activity at 100 µM is 77.4%.

What about the melting point of the same compound?
The melting point was 132 to 139 °C.

And the activity at 100 µM [4]?
The activity at 100 µM was 95.3%.

Which results are given for `CN(C)c1nc(N)nc(N2CCN(c3ccc([N+](=O)[O-])cc3)CC2)n1` [Example 40, N2,N2-dimethyl-6-(4-(4-nitrophenyl)piperazin-1-yl)-1,3,5-triazine-2,4-diamine]?
activity at 100 µM [1]: 62.2%; activity at 100 µM [2]: 245%; effect of reducing insulin resistance, times better than the control group [2]: about 14 times; activity at 100 µM [3]: 39.8%; melting point: 173 to 182 °C; activity at 100 µM [4]: 110%

For `CN(C)c1nc(N)nc(NC2CCCCC2)n1` [Example 41, N2-cyclohexyl-N4,N4-dimethyl-1,3,5-triazine-2,4,6-triamine], which activity at 100 µM [1] is on record?
The activity at 100 µM was 70.8%.

What about the activity at 100 µM [2] of the same compound?
Its activity at 100 µM is 263%.

And the “effect of reducing insulin resistance, times better than the control group” value [2]?
Its value is “about 16 times”.

And the activity at 100 µM [3]?
The activity at 100 µM was 90.6%.

What about the melting point of the same compound?
Its melting point is 119 to 120 °C.

And the activity at 100 µM [4]?
Its activity at 100 µM is 90.9%.

With `CN(C)c1nc(N)nc(Nc2ccccc2O)n1` [Example 43, 2-(4-amino-6-(dimethylamino)-1,3,5-triazine-2-ylamino)phenol] as the compound, how does the activity at 100 µM [1] read?
Its activity at 100 µM is 41.1%.

And the activity at 100 µM [2]?
Its activity at 100 µM is 186%.

And the activity at 100 µM [3]?
Its activity at 100 µM is 83.5%.

And the melting point?
Its melting point is 307 to 312 °C.

What about the activity at 100 µM [4] of the same compound?
Its activity at 100 µM is 77%.
